Consider 12 compounds from patent US8071611B2, “Spirocyclic heterocyclic derivatives and methods of their use” (Adolor Corporation, priority 2003, dated 2011).

Assay [1] addresses T1, cloned human μ opioid receptor (Homo sapiens, UniProt P35372).
T1 construct: expressed in transfected cells; host or cells: CHO cells (membranes)
Put plainly: Receptor binding: inhibition of [3H]diprenorphine binding to cloned human μ opioid receptor. Conditions: for % Inhibition at 10 μM (μ): [3H]diprenorphine binding, cloned human μ opioid receptor; for inhibition at 10 µM: read-out: % Inhibition at 10 μM (μ). Here is the method:
(§1) IC50 values were obtained by nonlinear analysis of the data using GraphPad Prism version 3.00 for Windows (GraphPad Software, San Diego). Ki values were obtained by Cheng-Prusoff corrections of IC50 values.
(§2) After dilution in buffer A and homogenization as before, membrane proteins (10-80 μg) in 250 μL were added to mixtures containing test compound and [^3H]diprenorphine (0.5 to 1.0 nM, 40,000 to 50,000 dpm) in 250 μL of buffer A in 96-well deep-well polystyrene titer plates (Beckman). After incubation at room temperature for one hour, the samples were filtered through GF/B filters that had been presoaked in a solution of 0.5% (w/v) polyethylenimine and 0.1% (w/v) bovine serum albumin in water. The filters were rinsed 4 times with 1 mL of cold 50 mM Tris HCl, pH 7.8 and radioactivity remaining on the filters determined by scintillation spectroscopy. Nonspecific binding was determined by the minimum values of the titration curves and was confirmed by separate assay wells containing 10 μM naloxone.
(§3) To determine the equilibrium dissociation constant for the inhibitors (Ki), radioligand bound (cpm) in the presence of various concentrations of test compounds was measured. The concentration to give half-maximal inhibition (EC50) of radioligand binding was determined from a best nonlinear regression fit to the following equation,
(§4) The nonlinear regression fit was performed using the program Prism® (GraphPad Software, San Diego, Calif.). The Ki values were then determined from the EC50 values by the following equation,
(§5) [formula] where [ligand] is the concentration of radioligand and Kd is the equilibrium dissociation constant for the radioligand.
as §1
(§6) [formula] where [ligand] is the concentration of radioligand and Kd is the equilibrium dissociation constant for the radioligand. Receptor-Mediated [^35S]GTP[…]S Binding

The target of assay [2] is T2, cloned human κ opioid receptor (Homo sapiens, UniProt P41145).
T2 construct: expressed in transfected cells; host or cells: CHO cells (membranes)
Put plainly: Receptor binding: inhibition of [3H]diprenorphine binding to cloned human κ opioid receptor. Conditions: for inhibition at 10 µM: read-out: % Inhibition at 10 μM (κ); for % Inhibition at 10 μM (κ): [3H]diprenorphine binding. How it is done:
as §1, §2, §3, §4, §5, §1, §6

The test system of assay [3] is forced swim behaviour in rats. In words: Forced swim assay. Type of assay: in vivo, Male Sprague-Dawley rats. Conditions: percent change ±SEM relative to vehicle-treated rats. The text has this:
Male Sprague-Dawley rats (approximately 200 g) are placed in a tank of room temperature water for a fifteen min practice swim. Every five sec during the first five min of the practice swim, the rats are rated as immobile (floating with motion needed to keep head above the water), swimming (movement across the swim), or climbing (actively trying to climb out of the tank of water, upward directed movements of the forepaws). The percentage of time the rats spent in each of these responses is calculated.
Approximately 24 h after the practice swim, the rats are treated with vehicle or test compound and placed in the tank for a 5 min swim. As was the case with the practice swim, the rats are rated as immobile, swimming, or climbing during the test swim and the percentage of time spent in each of these responses is calculated. The data is analyzed by one-way ANOVA with post-hoc analysis to compare the behavioral response after vehicle treatment to the behavioral response after drug treatment for each of the three behavioral responses. The level of significance is set at p<0.05.

The target of assay [4] is T3, cloned human δ opioid receptor (Homo sapiens, UniProt P41143).
T3 construct: expressed in transfected cells; host or cells: CHO cells (membranes)
Put plainly: Receptor-mediated [35S]GTPγS binding, membranes containing cloned human δ opioid receptors. Type of assay: biochemical. Conditions: agonist stimulation of [35S]GTPγS binding. Here is the method:
(§7) Assays are carried out in 96-well FlashPlates® (Perkin Elmer Life Sciences, Inc, Boston, Mass.). Membranes prepared from CHO cells expressing the appropriate receptor (50-100 μg of protein) are added to assay mixtures containing agonist with or without antagonists, 100 μM [^35S]GTPγS (approx. 100,000 dpm), 3.0 μM GDP, 75 mM NaCl, 15 mM MgCl2, 1.0 mM ethylene glycol-bis(β-aminoethyl ether)-N,N,N′,N′-tetracetic acid, 1.1 mM dithiothreitol, 10 μg/mL leupeptin, 10 μg/mL pepstatin A, 200 μg/mL bacitracin, and 0.5 μg/mL aprotinin in 50 mM Tris-HCl buffer, pH 7.8. After incubation at room temperature for one hour, the plates are sealed, centrifuged at 800×g in a swinging bucket rotor for 5 min and bound radioactivity determined with a TopCount microplate scintillation counter (Packard Instrument Co., Meriden, Conn.).
as §7, with “pM [^35S]GTP[…]S” for “μM [^35S]GTPγS”
(In general: GTPγS is a poorly hydrolysed GTP analogue; its binding reports G protein activation.)

In assay [5] the target is T3, cloned human δ opioid receptor. Put plainly: Receptor binding: inhibition of [3H]diprenorphine binding to cloned human δ opioid receptor. Here is the method:
as §1, §2, §3, §4, §5, §1, §6

The mark [6] stands for this setting: [3H]diprenorphine displacement, cloned human δ opioid receptor, read-out: Ki(δ).

Molecules are shown by their SMILES. Structures can show the parent of a compound that is named as a salt. Where two headings read alike, the source gives them in different places.

T1 sequence (P35372 whole entry): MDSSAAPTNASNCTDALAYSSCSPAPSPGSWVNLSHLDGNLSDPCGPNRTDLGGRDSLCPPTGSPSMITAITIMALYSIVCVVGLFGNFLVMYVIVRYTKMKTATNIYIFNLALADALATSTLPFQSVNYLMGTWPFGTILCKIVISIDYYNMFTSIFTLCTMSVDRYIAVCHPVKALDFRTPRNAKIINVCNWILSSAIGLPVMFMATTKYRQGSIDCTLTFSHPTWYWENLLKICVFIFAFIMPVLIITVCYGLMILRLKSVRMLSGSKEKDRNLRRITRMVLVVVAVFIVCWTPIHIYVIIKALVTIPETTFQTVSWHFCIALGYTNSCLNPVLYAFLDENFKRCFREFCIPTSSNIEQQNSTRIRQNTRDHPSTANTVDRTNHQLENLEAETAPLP
T3 sequence (P41143 whole entry): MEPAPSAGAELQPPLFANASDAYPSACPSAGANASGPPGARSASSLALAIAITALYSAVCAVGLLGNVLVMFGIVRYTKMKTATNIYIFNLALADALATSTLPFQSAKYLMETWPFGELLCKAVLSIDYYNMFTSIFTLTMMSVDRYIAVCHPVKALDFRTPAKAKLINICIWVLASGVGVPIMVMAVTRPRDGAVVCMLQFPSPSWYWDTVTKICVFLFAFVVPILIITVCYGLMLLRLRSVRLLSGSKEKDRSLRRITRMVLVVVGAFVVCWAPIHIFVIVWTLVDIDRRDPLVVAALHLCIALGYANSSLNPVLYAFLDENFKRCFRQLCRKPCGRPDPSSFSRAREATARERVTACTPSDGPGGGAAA
T2 sequence (P41145 whole entry): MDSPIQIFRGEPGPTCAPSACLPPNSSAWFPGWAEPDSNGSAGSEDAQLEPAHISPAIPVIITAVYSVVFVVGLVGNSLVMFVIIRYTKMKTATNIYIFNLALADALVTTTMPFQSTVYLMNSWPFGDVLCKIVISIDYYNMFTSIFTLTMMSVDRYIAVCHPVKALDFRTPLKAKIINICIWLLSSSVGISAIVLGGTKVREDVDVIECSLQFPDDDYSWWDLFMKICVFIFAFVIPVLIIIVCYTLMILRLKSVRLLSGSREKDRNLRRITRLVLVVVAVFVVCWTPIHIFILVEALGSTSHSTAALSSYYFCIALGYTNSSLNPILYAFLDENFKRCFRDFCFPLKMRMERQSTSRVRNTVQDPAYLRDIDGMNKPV

Usually Ki stands for a dissociation constant, usually derived from enzyme kinetics or from competition with a known ligand. `CCN(CC)C(=O)c1ccc(C2=CC3(CCNCC3)Oc3ccccc32)cc1` [Example 1A]: the Ki in assay [1] is 980 nM; in assay [2], above 1000 nM. Besides, the “IMMOBILITY (% Decrease)” value in assay [3] (3 mg/kg p.o.) came to 17 ± 10%; in assay [3] (30 mg/kg p.o.), 43 ± 13 %. Besides, the “SWIMMING (% Increase)” value is recorded as 37 ± 17% in assay [3] (3 mg/kg p.o.) and 137 ± 35 % in assay [3] (30 mg/kg p.o.).

The term EC50 denotes the midpoint of the concentration-response curve. Higher therefore signals a need for much substance. Usually inhibition stands for the relative decrease from the control value, in per cent. In assay [4], `CCN(CC)C(=O)c1ccc(C2=CC3(CCNCC3)Oc3ccc(F)cc32)cc1` [Example Z2, 4-[(4-N,N-diethylaminocarbonyl)phenyl]-6-fluoro-spiro[2H,1-benzopyran-2,4′-piperidine]hydrochloride] had an EC50 of 70 nM. The Ki in assay [1] is 4500 nM; in assay [5], 2.6 nM. Besides, the inhibition at 10 µM in assay [2] amounted to 17%.

By % Inhibition is commonly meant the share of the control response that was lost under treatment. As to `CCN(CC)C(=O)c1ccc(C2=CC3(CCNCC3)Oc3ccc(O)cc32)cc1.Cl` [Example Z3, 4-[(4-N,N-diethylaminocarbonyl)phenyl]-6-hydroxyspiro[2H,1-benzopyran-2,4′-piperidine]hydrochloride], the EC50 in assay [4] was 1.4 nM. Moreover, the “% Inhibition at 10 μM (μ)” value in assay [1] was 50%. The Ki in assay [2] ([3H]diprenorphine displacement, cloned human κ opioid receptor, read-out: Ki(κ)) is 790 nM; in assay [5] (setting [6]) it was 0.36 nM.

In the case of `CCN(CC)C(=O)c1ccc(C2CC3(CCNCC3)Oc3ccccc32)cc1.Cl` (stereo not drawn) [Example Z4, 4-[(4-N,N-diethylaminocarbonyl)phenyl]-3,4-dihydrospiro[2H,1-benzopyran-2,4′-piperidine]hydrochloride], the “% Inhibition at 10 μM (μ)” value in assay [1] is reported as 34%. In assay [2] (cloned human κ opioid receptor), the “% Inhibition at 10 μM (κ)” value worked out at 19%.

In assay [4], `CCN(CC)C(=O)c1ccc(C2=CC3(CCN(C)CC3)Oc3ccccc32)cc1` [Example Z5, 4-[(4-N,N-diethylaminocarbonyl)phenyl]-N-methyl-spiro[2H,1-benzopyran-2,4′-piperidine]hydrochloride] returned an EC50 of 140 nM. The inhibition at 10 µM in assay [1] is 17%; in assay [2], 23%. The same compound came in with a Ki in assay [5] of 5.8 nM.

In turn, `CCCN(CC1CC1)C(=O)c1ccc(C2=CC3(CCNCC3)Oc3ccccc32)cc1` [Example Z7, 4-[(4-N-propyl-N-cyclopropylmethylaminocarbonyl)phenyl]-spiro[2H,1-benzopyran-2,4′-piperidine]hydrochloride] yielded an EC50 in assay [4] of 29 nM. For the same compound, the Ki was 2500 nM in assay [1] and 1.7 nM in assay [5]. Moreover, the inhibition at 10 µM in assay [2] worked out at 51%.

`O=C(O)C1CCN(C(=O)c2ccc(C3=CC4(CCNCC4)Oc4ccccc43)cc2)CC1` [Example Z9, 4-[4-(4-carboxypiperidineaminocarbonyl)phenyl]-spiro[2H,1-benzopyran-2,4′-piperidine]hydrochloride] registered an EC50 in assay [4] of 160 nM. The inhibition at 10 µM is 17% in assay [1] and 24% in assay [2]. This compound gave a Ki in assay [5] of 15 nM.

`C1=C(c2ccc(-c3nn[nH]n3)cc2)c2ccccc2OC12CCNCC2.O=C(O)C(F)(F)F` [Example Z10, 4-[4-(2H-tetrazolyl)phenyl]-spiro[2H,1-benzopyran-2,4′-piperidine]trifluoroacetic acid salt] registered an EC50 in assay [4] of 22 nM. The “% Inhibition at 10 μM (μ)” value in assay [1] was 29%. Further, in assay [2] (cloned human κ opioid receptor), the “% Inhibition at 10 μM (κ)” value came to 1.3%. The Ki in assay [5] (setting [6]) is 2.7 nM.

`O=C(O)CCCn1nnc(-c2ccc(C3=CC4(CCNCC4)Oc4ccccc43)cc2)n1` [Example Z11, 4-[4-(4-carboxypropyl-tetrazol-2-yl)phenyl]-spiro[2H,1-benzopyran-2,4′-piperidine]]: the response in assay [4] was half-maximal at 140 nM (EC50). The inhibition at 10 µM in assay [1] is 3.7%; in assay [2], -3.3%. Also, the affinity in assay [5] corresponds to a Ki of 8 nM.

As to `C1=C(c2cccnc2)c2ccccc2OC12CCNCC2` [Example Z12, 4-(3-pyridyl)-spiro[2H,1-benzopyran-2,4′-piperidine]hydrochloride], the values for the inhibition at 10 µM in assay [1] and in assay [2] were 36% and 44%, respectively. This compound also had a Ki in assay [5] of 54 nM.

For `CS(=O)(=O)c1ccc(C2=CC3(CCNCC3)Oc3ccccc32)cc1` [Example Z13, 4-[4-(methanesulfonyl)-phenyl]-spiro[2H,1-benzopyran-2,4′-piperidine]hydrochloride], the inhibition at 10 µM in assay [1] was determined as 41%; in assay [2], 17%. For the same compound, the affinity in assay [5], expressed as Ki, was 28 nM.

With `CCN(CC)C(=O)c1ccc(C2=CC3(CC4CCC(C3)N4)Oc3ccccc32)cc1` (stereo not drawn) [Example Z14, 4-[(4-N,N-diethylaminocarbonyl)phenyl]spiro[2H,1-benzopyran-2,4′-nortropine]hydrochloride], the inhibition at 10 µM is 24% in assay [1] and 8% in assay [2]. In assay [5], this compound gave a Ki of 26 nM.
